{"source": "paper PMC6934184", "about": "“Selective DNA-PKcs inhibition extends the therapeutic index of localized radiotherapy and chemotherapy” (The Journal of Clinical Investigation, 2019)", "target": "T1, CSNK1G1 (CK1 gamma 1) (Homo sapiens, UniProt Q9HCP0)", "T1 construct": "purchased Thermo Fisher Scientific (Life Technologies) SelectScreen", "T1 sequence (Q9HCP0 whole entry)": "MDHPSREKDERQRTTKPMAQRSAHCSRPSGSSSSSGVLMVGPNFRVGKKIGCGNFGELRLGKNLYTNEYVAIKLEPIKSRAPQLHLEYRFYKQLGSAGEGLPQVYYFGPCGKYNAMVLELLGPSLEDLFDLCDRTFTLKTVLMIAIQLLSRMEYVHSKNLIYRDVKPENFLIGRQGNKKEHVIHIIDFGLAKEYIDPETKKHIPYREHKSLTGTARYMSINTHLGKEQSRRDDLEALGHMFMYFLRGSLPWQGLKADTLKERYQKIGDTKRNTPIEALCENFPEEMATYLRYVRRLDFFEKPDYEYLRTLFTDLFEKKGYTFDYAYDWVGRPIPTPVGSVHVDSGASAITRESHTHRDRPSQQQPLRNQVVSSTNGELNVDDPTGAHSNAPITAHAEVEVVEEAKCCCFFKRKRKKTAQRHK", "experiment": "SelectScreen Z'LYTE", "assay_type": "biochemical", "how_it_was_run": "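Percent values come from Thermo SelectScreen profiling of NU5455, combining activity and binding assays. CSF1R was run in Z'LYTE format at Km app ATP, and CAMK1 in Adapta format with ATP listed at 10.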", "data": [{"smiles": "CN(C(=O)CN1CCOCC1)c1ccc2sc3c(-c4cccc5c(=O)cc(N6CC7CCC(C6)O7)oc45)cccc3c2c1", "note": "[NU5455]", "values": [{"measurement": "inhibition at 1 µM", "result": -9.9, "unit": "%"}]}]}
